Test results: patent US11225470B2, “Tetrazolinone compounds and its use as pest control agents” (SUMITOMO CHEMICAL COMPANY, LIMITED, priority 2016, dated 2022)

Assays:
Format in all cases: in vivo
[1] = test system: wheat leaf blotch fungi (Septoria tritici); test: wheat leaf blotch test on 45-day wheat, plants placed outside for 4 days before inoculation; settings: 300 ppm, 200 L/ha, Formulation Example 4, wheat cv APOGEE grown 45 days
Source text: Each of plastic pots was filled with soil and wheat (cultivar: APOGEE) was sown, and the […] grown in a greenhouse for 45 days. Then, the comparative test compound cf3, the present compound E-15, or E-16, each of which was made to a formulation according to the similar method to that of Formulation Example 4, was mixed with water so as to be 300 ppm. The mixtures were sprayed to foliar parts of the wheat by the volume of 200 L/ha. After spraying the mixtures, the […], and placed outside for 4 days. Thereafter, an aqueous suspension of the spores of wheat leaf blotch fungi (Septoria tritici) was spraying-inoculated.

[2] = test system: soybean frogeye leaf spot disease fungi (Cercospora sojina); test: soybean frogeye leaf spot test, spraying before inoculation; settings: 3.1 ppm foliar spray, inoculation after 2 days; soybean cv Tachinagaha
[3] = test system: kidney bean sclerotinia rot fungi (Sclerotinia sclerotiorum); test: kidney bean sclerotinia rot test, plants placed outside for 6 days before inoculation; settings: 200 ppm foliar spray, observed after six days
Source text: Each of plastic pots was filled with soil and kidney bean (cultivar: NAGAUZURA SAITO) was sown and grown in a greenhouse for 8 days. Then, the comparative test compound cf5, the present compound E-1, E-3, E-11, or E-16, each of which was made to a formulation according to the similar method to that of Formulation Example 6, was mixed with water so as to be 200 ppm. The mixtures were sprayed to foliar parts so as to adhere adequately on the leaves of the above-mentioned kidney bean. After spraying the mixtures, the kidney beans were air-dried, and placed outside for 6 days. Thereafter, a PDA medium containing hyphae of kidney bean sclerotinia rot fungi (Sclerotinia sclerotiorum) was placed on the leaves of the kidney bean. After the inoculation, all kidney beans were placed indoors under a high humidity during only night and after six days, a lesion area was observed.

[4] = test system: kidney bean sclerotinia rot fungi (Sclerotinia sclerotiorum); test: kidney bean sclerotinia rot test; settings: 200 ppm foliar spray; kidney bean cv NAGAUZURA SAITO; observed after four days
Description: Each of plastic pots was filled with soil and thereto Kidney bean (cv; NAGAUZURA SAITO) seeds were sown and the kidney beans were grown in a greenhouse for 8 days. Thereafter, any of the present compounds 1-1, 1-2, 1-3, 1-5, 1-10, 3-16, 3-22, 4-2, 4-3, 4-4, 4-8, or 6-2, each of which was made to a formulation according to the similar method to that of Formulation Example 6, was mixed with water so as to be a prescribed concentration (500 ppm). The adjusted solutions were sprayed to foliar parts so as to adhere adequately on the leaves of the above-mentioned kidney bean. After spraying the mixtures, the kidney beans were air-dried and a PDA medium containing hyphae of kidney bean sclerotinia rot fungi (Sclerotinia sclerotiorum) was placed on the leaves of the kidney bean. After the inoculation, all kidney beans were placed under a high humidity during only night and after four days, a lesion area was observed.
Each of plastic pots was filled with soil and thereto Kidney bean (cv; NAGAUZURA SAITO) seeds were sown and the kidney beans were grown in a greenhouse for 8 days. […] The adjusted solutions were sprayed to foliar parts so as to adhere adequately on the leaves of the above-mentioned kidney bean. […]

[5] = test system: soybean frogeye leaf spot disease fungi (Cercospora sojina); test: soybean frogeye leaf spot test, spraying after inoculation; settings: 200 ppm foliar spray 5 days after inoculation; soybean cv TACHINAGAHA

CCC(=NN=C(C)c1ccc(F)cc1)OCc1c(C)cccc1-n1nnn(C)c1=O [cf3]
lesion area compared to the lesion area in an untreated wheat [1]: ≥ 80%

CCC(=NN=C(C)c1ccccc1)OCc1c(C)cccc1-n1nnn(C)c1=O [cf5]
area of lesion compared to that on an untreated bean [2]: more than 70%
lesion area compared to the lesion area in an untreated kidney bean [3]: ≥ 70%

CCC(=NN=C(C)c1ccc2ccccc2c1)OCc1c(C)cccc1-n1nnn(C)c1=O [cf1]
lesion area compared to the lesion area in an untreated kidney bean [4]: ≥ 50%
lesion area compared to the lesion area in an untreated soybean [5]: ≥ 50%
